PubChem BioAssay (NCI)
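96-well plates; 48 h exposure; 5 concentrations. Endpoints by linear interpolation between flanking doses. Not reached: highest tested concentration assigned. TGI marks complete inhibition of growth.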

Assays:
Test in all cases: NCI anticancer screen, dose series, 48 h
COLO 205 colon = system: COLO 205 colon
UACC-257 melanoma = system: UACC-257 melanoma
LOX IMVI melanoma = system: LOX IMVI melanoma
SF-539 CNS = system: SF-539 CNS
SK-MEL-2 melanoma = system: SK-MEL-2 melanoma
MDA-MB-231 breast = system: MDA-MB-231 breast
OVCAR-3 ovarian = system: OVCAR-3 ovarian
K-562 leukemia = system: K-562 leukemia
A549 NSCLC = system: A549 NSCLC
RXF 393 renal = system: RXF 393 renal

Row | SMILES | TGI (COLO 205 colon) | TGI (UACC-257 melanoma) | TGI (LOX IMVI melanoma) | TGI (SF-539 CNS) | TGI (SK-MEL-2 melanoma) | TGI (MDA-MB-231 breast) | TGI (OVCAR-3 ovarian) | TGI (K-562 leukemia) | TGI (A549 NSCLC) | TGI (RXF 393 renal)
1 | O=C(CNc1ccccn1)Nn1cnc2ccc(S(=O)(=O)Nc3ccccn3)cc2c1=O | > 100 µM | > 100 µM | > 100 µM | > 100 µM | > 100 µM | > 100 µM | > 100 µM | > 100 µM | > 100 µM | 
2 | N#CCCn1[nH]c(=O)c(Cl)c(Cl)c1=O | 57.3 µM | 37.7 µM | 28.3 µM | 51.1 µM | 29.6 µM |  | 26.7 µM | 28.1 µM | 59.4 µM | 32.2 µM
3 | O=[N+]([O-])c1ccc(C2=Nc3ccccc3S(=O)C(c3ccccc3)C2)cc1 (stereo not given) | 40 µM | 55.3 µM | 29.3 µM | 45 µM | > 100 µM |  | 37.3 µM | 34.5 µM | > 100 µM | 29 µM
4 | CCOC(=O)c1c2ccc(/C=C/c3ccccn3)ccc-2c(C(=O)OCC)c1N | > 100 µM | > 100 µM | > 100 µM | > 100 µM | > 100 µM |  | > 100 µM | > 100 µM | > 100 µM | > 100 µM
5 | CCCCCCCC/C=C1\CCC(CN(C)C)C1=O (stereo not given) | 14.8 µM | 16.8 µM | 4.09 µM | 9.32 µM | 24.6 µM |  | 22 µM | 7.2 µM | 39.9 µM | 
6 | CC1=NN(c2nc(N)nc(NS(=O)(=O)c3cc(C)c(Cl)cc3S)n2)C(C)(C)C1 | > 10 µM | > 10 µM | > 10 µM | > 10 µM | > 10 µM |  | > 10 µM | > 10 µM | > 10 µM | > 10 µM
7 | CC(=O)OI1NC(=O)c2ccccc21 | > 100 µM |  | > 100 µM |  | > 100 µM | > 100 µM | > 100 µM | > 100 µM | > 100 µM | 
8 | CC(C)C1CNC(=O)C2(C=NC(C(C)C)CNC(=O)C3(C=N1)CCCO3)CCCO2 (stereo not given) | > 10 µM | > 10 µM |  | > 10 µM |  | > 10 µM | > 10 µM | > 10 µM | > 10 µM | > 10 µM
9 | CC1=C(c2nc3ccccc3s2)C(=O)OC1(C)C | > 100 µM | > 100 µM | > 100 µM | > 100 µM | > 100 µM |  | > 100 µM | > 100 µM | > 100 µM | 
10 | CCC(NC(C)c1ccccc1)C(=O)c1ccc(OCc2ccccc2)c(OCc2ccccc2)c1 (stereo not given) | > 100 µM |  | > 100 µM | > 100 µM |  | > 100 µM | > 100 µM | > 100 µM | > 100 µM | > 100 µM
11 | COCC(C)(C)N=CN1Cc2cc3ccccc3nc2C1 | > 100 µM | > 100 µM |  | > 100 µM | > 100 µM |  | > 100 µM | > 100 µM | > 100 µM | > 100 µM
12 | CC1(C)OP(=O)(c2ccccc2)C=C1Sc1ccc([N+](=O)[O-])cc1[N+](=O)[O-] (stereo not given) | > 100 µM | > 100 µM | > 100 µM | > 100 µM | > 100 µM |  | > 100 µM | 67.3 µM | > 100 µM | 
13 | Nc1nc2c(N)cc(C(F)(F)F)cc2nc1-c1ccccc1 | > 100 µM | > 100 µM | > 100 µM | > 100 µM | > 100 µM |  | > 100 µM | > 100 µM | > 100 µM | > 100 µM
14 | O=C1C(c2ccccc2)=C(c2ccccc2)C(c2ccc(Cc3ccc(C4=C(c5ccccc5)C(=O)C(c5ccccc5)=C4c4ccccc4)cc3)cc2)=C1c1ccccc1 | > 100 µM | > 100 µM | > 100 µM | > 100 µM | > 100 µM |  | > 100 µM | > 100 µM | > 100 µM | > 100 µM
15 | O[C@]12C=C(c3nccc4c3[nH]c3ccccc34)[C@@H]3CCN(CCCC/C=C\CC1)C[C@@]31CC3/C=C\CCCCN3[C@H]12 (stereo not given in full) | 1.13 µM | 3.39 µM | 0.84 µM | 4.6 µM | 0.534 µM | 1.84 µM | 1.55 µM | 2.84 µM | 11.2 µM | 
16 | O=C1N=C2SC=C(NC(=S)Nc3ccccc3)N2NC12c1ccccc1-c1ccccc12 | > 10 µM | > 10 µM | > 10 µM | > 10 µM |  | > 10 µM |  | > 10 µM | > 10 µM | > 10 µM
17 | CC(C)[C@@H]1CC[C@@H](C)C[C@H]1OC(=O)c1c2n(c3ccccc13)C[C@H]1OC(C)(C)O[C@@H]21 | > 100 µM | > 100 µM | > 100 µM |  | > 100 µM | > 100 µM | > 100 µM | > 100 µM | > 100 µM | 82.9 µM
18 | C=CCCC1(O)C(O)C(CO)O[C@H](O[C@@]2(CO)OC(CO)C(O)C2O)C1O (stereo not given in full) | > 100 µM | > 100 µM | > 100 µM | > 100 µM |  | > 100 µM |  | > 100 µM | > 100 µM | 
19 | C=C1CC(C)(COc2ccc3c(C)c(Cl)c(=O)oc3c2)OC1=O (stereo not given) | 2.43 µM | 3.48 µM | 2.91 µM | 15.6 µM | 4.47 µM | 12.6 µM | 16.9 µM | 5.98 µM | 25.5 µM | 
20 | Cc1cc2ncn(-c3nc4ccccc4nc3C(C#N)S(C)(=O)=O)c2cc1C (stereo not given) | > 100 µM | > 100 µM | > 100 µM | > 100 µM | > 100 µM |  | > 100 µM | > 100 µM | > 100 µM | 
21 | Cc1c(C)c2c(c(N)c1C#N)C(=O)N(O)C2=O | > 100 µM | > 100 µM |  | > 100 µM | > 100 µM | > 100 µM | > 100 µM | > 100 µM | > 100 µM | > 100 µM
22 | CC(C)N(C(=O)C12C3C4C1C1C2C3C41C#N)C(C)C (stereo not given) | > 100 µM | > 100 µM | > 67.2 µM | > 100 µM | > 100 µM |  | > 100 µM | > 100 µM | > 100 µM | > 100 µM
23 | O=C(NCCN1CCCCC1)c1ccc(Br)cc1 | > 100 µM | > 100 µM | > 100 µM |  | > 100 µM | > 100 µM | > 100 µM | > 100 µM | > 100 µM | > 100 µM
